Here are results for three compounds from patent US20050165000A1, “Pharmaceutical compositions containing an hiv integrase inhibitor and a nonionic surfactant” (priority 2002, published 2005).

Structures are written as SMILES.

Series [1] can be described thus: oral bioavailability when administered to animals. The series is classed as in vivo. On the procedure:
(§1) Since the physiological pH typically lies within this range, the rate of the drug's dissolution in and absorption from the gastrointestinal tract can be low, particularly when the drug is administered in a solid dosage form. The same or similar formulation difficulties can be expected for other 8-hydroxy-1,6-naphthyridine-7-carboxamides of this class and their salts having low solubility at physiological pH's.
Particle size can affect the oral bioavailability of the active drug substances employed in the pharmaceutical compositions of the invention. […] Accordingly, embodiments of the present invention include each of the pharmaceutical compositions defined and described above, wherein the active drug substance (i.e., Compound I or II or A or B or a pharmaceutically acceptable salt thereof) employed therein has a mean particle size of from about 1 to about 20 μm, or from about 1 to about 10 μm (e.g., from about 3 to about 6 μm wherein 90% of the particles are less than 10 μm).

The target in a further series is T1, HIV integrase (Human immunodeficiency virus type 1 group M subtype B, UniProt P04585).
T1 construct: strand transfer is catalyzed by recombinant integrase
In words: integrase inhibition assay, strand transfer catalyzed by recombinant integrase. In kind it is biochemical. The text has this:
Integrase inhibition activity can be determined, for example, using the assay described in Hazuda et al., J. Virol. 1997, 71: 7005-7011.

A further series concerns HIV replication. In words: inhibition of acute HIV infection of T-lymphoid cells. The series is classed as cell-based. The text has this: The active drug substances employed in the pharmaceutical compositions of the present invention (e.g., the 8-hydroxy-1,6-naphthyridine-7-carboxamide compounds of Formula (I) and (II) and Compounds A and B) are inhibitors of HIV integrase. […] Integrase inhibition activity can be determined, for example, using the assay described in Hazuda et al., J. Virol. 1997, 71: 7005-7011. […] Further description of representative compound embraced by Formula I, assays for measuring their integrase inhibition activity and HIV replication activity can be found in WO 02/30930.

Series [2] is described as follows: in vitro dispersion of Compound A in aqueous surfactant solutions. In kind it is physicochemical. The conditions noted are these: aqueous media at physiological pHs, in the absence of a nonionic surfactant or in the presence of SLS; Na salt milled to 3 μm. The source says:
This PK data is consistent with the results of in vitro experiments characterizing the ability of these surfactants to disperse Compound A. In these experiments, Compound A Na salt (milled to a 3 μm mean particle size) was suspended in acidified aqueous solutions of the surfactant, and the surfactants were ranked for effectiveness in dispersing Compound A based on a visual evaluation of the suspension for turbidity and particle size. The visual evaluations were confirmed by measuring the particle size distributions in the suspensions using a laser scattering particle size distribution analyzer. The results of these tests have shown that Compound A drug particles flocculate in aqueous media at physiological pHs in the absence of a nonionic surfactant or in the presence of SLS.

Series [3] in a line: wettability and water solubility. In kind it is physicochemical. On the procedure:
as §1

Where [4] appears, read: animals, aqueous suspensions containing 0.5 wt. % methocel and 0.02 wt. % sodium lauryl sulfate.

Take `O=C(NCc1ccc(F)cc1)c1nc(N2CCCCS2(=O)=O)c2cccnc2c1[O-].[Na+]` [Compound A sodium salt, 5-(N-1,4-butanesultam)-N-(4-fluorobenzyl)-8-hydroxy-1,6-naphthyridine-7-carboxamide sodium salt]: the oral bioavailability result in series [1] (setting [4]) is reported as “satisfactory oral bioavailability”; in series [1] (animals, wet granulated compressed tablets with lactose, hydroxypropylcellulose, Na croscarmellose, microcrystalline cellulose, Mg stearate (no surfactant)), “poor oral bioavailability”; in series [1] (capsules containing bulk Compound A sodium salt, versus the suspension), “substantially lower oral bioavailability”.
Turning to `O=C(NCc1ccc(F)cc1)c1nc(N2CCCCS2(=O)=O)c2cccnc2c1O` [Compound A, 5-(1,1-dioxido-1,2-thiazinan-2-yl)-N-(4-fluorobenzyl)-8-hydroxy-1,6-naphthyridine-7-carboxamide], at HIV integrase, the “HIV integrase inhibition in the strand transfer assay” value is “potent HIV integrase inhibitors”. Moreover, the “inhibition of HIV replication” value in the series with HIV replication is “very effective”. The “dispersion of drug particles (turbidity, particle size)” value in series [2] is reported as “flocculate”. The oral bioavailability result in series [1] (setting [4]) was “satisfactory oral bioavailability”. Besides, the wettability result in series [3] is “poor wettability”. Further, in series [3] (pH's between about 2 and about 8), the water solubility result is reported as “low water solubility”.
For the compound `CNC(=O)c1cc(F)ccc1CNC(=O)c1nc(N2CCCCS2(=O)=O)c2cccnc2c1O` [Compound B, N-{4-fluoro-2-[(methylamino)carbonyl]benzyl}-5-(1,1-dioxido-1,2-thiazinan-2-yl)-8-hydroxy-1,6-naphthyridine-7-carboxamide], the “HIV integrase inhibition in the strand transfer assay” value at HIV integrase was “potent HIV integrase inhibitors”. Also, in the series with HIV replication, the “inhibition of HIV replication” value is given as “very effective”.
